Reference: patent EP4621028A1, “FLUORESCENCE RECOVERY IN NANOGRAPHENE” (Max-Planck-Gesellschaft zur Förderung der Wissenschaften …, priority 2024, dated 2025)

Experiments:
[1] = Absorption and fluorescence in toluene; type: physicochemical; conditions: for molar extinction coefficient ε: at maximum absorption wavelength
Solubility in water = type: physicochemical; conditions: room temperature
Protocol: In accordance with the present invention, the solubility and particularly the solubility of the compound having the general formula (1) or the general formula (2) in water at 23°C is measured as follows: 1 mg sample is weighed into an Erlenmeyer flask and is then mixed homogeneously with 4 ml of water with a spatula at 23°C. The remaining substance on the spatula is stripped off with a magnetic stirrer bar, which is then added to the Erlenmeyer flask. While stirring with a magnetic stirrer, water is added dropwise with a burette until the solution in the Erlenmeyer flask becomes clear at 23°C. After that, the solubility of compound in water is calculated by calculating the ratio of weighed compound divided by the volume of added water and then by recalculating this ratio to 1 I of water.

| Compound | absorption spectrum and emission spectrum [1] | molar extinction coefficient ε ([1]; in toluene (10^-5 mol/L)) | also measured |
| --- | --- | --- | --- |
| c1ccc(-c2c3cccc4c5ccc6ccc7c(-c8ccccc8)c8cccc9c%10ccc%11ccc2c2c%11c%10c%10c(c89)c7c6c5c%10c2c34)cc1 [Example 8, 6,14-diphenyldibenzo[hi,st]ovalene] | narrow absorption spectrum as well as a narrow emission spectrum | – | – |
| Cc1cccc(C)c1-c1c2cccc3c4ccc5ccc6c(-c7c(C)cccc7C)c7cccc8c9ccc%10ccc1c1c%10c9c9c(c78)c6c5c4c9c1c23 [Example 3, 6, 14-bis(dimethylphenyl)dibenzo[hi,st]ovalene] | narrow absorption spectrum as well as a narrow emission spectrum | 283000 M⁻¹ cm⁻¹ | – |
| CCCCCCCCCCCCOc1cc(-c2c3cccc4c5ccc6ccc7c(-c8cc(OCCCCCCCCCCCC)c(OCCCCCCCCCCCC)c(OCCCCCCCCCCCC)c8)c8cccc9c%10ccc%11ccc2c2c%11c%10c%10c(c89)c7c6c5c%10c2c34)cc(OCCCCCCCCCCCC)c1OCCCCCCCCCCCC [Example 7, 6,14-bis[3,4,5-tris(dodecoxyl)phenyl]dibenzo[hi,st]ovalene] | – | 385000 M⁻¹ cm⁻¹ | – |
| CC(C)[Si](C#Cc1c2cccc3c4ccc5ccc6c(C#C[Si](C(C)C)(C(C)C)C(C)C)c7cccc8c9ccc%10ccc1c1c%10c9c9c(c78)c6c5c4c9c1c23)(C(C)C)C(C)C [Example 6, 6, 14-di(triisopropylsilylethynyl) dibenzo[hi,st]ovalene] | narrow absorption spectrum as well as a narrow emission spectrum | 61511 M⁻¹ cm⁻¹ | – |
| COCCOCCOCCOCCOc1cc(-c2ccc3cc4cc5c(-c6c(C)cc(C)cc6C)cc6cc7c(-c8cc(OCCOCCOCCOCCOC)c(OCCOCCOCCOCCOC)c(OCCOCCOCCOCCOC)c8)ccc8cc9cc%10c(-c%11c(C)cc(C)cc%11C)cc%11cc2c3c2c%11c%10c3c9c(c87)c6c5c3c42)cc(OCCOCCOCCOCCOC)c1OCCOCCOCCOCCOC [Example 5, 3,11-bis(3,4,5-tris(2,5,8,11-tetraoxatridecan-13-yloxy)phenyl)-6,14-dimesityldibenzo[hi, st]ovalene] | – | – | solubility of this compound in water (Solubility in water): 100 µg/mL |
| 6,14-didodecyldibenzo[hi,st]ovalene [Example 2] | – | 203000 M⁻¹ cm⁻¹ | fluorescence quantum yield ([1]; in toluene (10^-5 mol/L)): 0.85; maximum absorption wavelength ([1]; in toluene (10^-5 mol/L)): 611 nm |
| N-hexyl fumaric acid imide group substituted 6,14-dimesityldibenzo[hi,st]ovalene [Example 9] | narrow absorption spectrum as well as a narrow emission spectrum | – | – |
